Experiments:
[1] = 72 h
[2] = format: binding
Procedure: A composition of the invention can comprise SAE-CD, corticosteroid, aqueous liquid carrier, and an antihistamine. In some embodiments, the composition contains SAE-CD, budesonide, water (or aqueous buffer) and azelastine. Example 14 details the preparation of such a composition. Other solutions of azelastine in buffer with varying amounts of SAE-CD, in the absence of budesonide, were prepared and scanned by UV Spectrometer. The change in absorption as a function of SAE-CD concentration was plotted and used to determine the equilibrium binding constant of azelastine with SAE-CD, according to the Benesi-Hildebrand equation. […] The binding constant for budesonide under similar conditions was determined to be about 1000; therefore, azelastine will compete with budesonide, or another corticosteroid, for binding to SAE-CD. Accordingly, the amount of SAE-CD present can be increased to permit complete dissolution of both drugs.
(§1) The equilibrium binding constant of the corticosteroid can change when a second active agent is present in a composition of the invention. Since azelastine hydrochloride (AZ-HCl) has an approximately 10-fold higher binding constant for SBE-β-CD than does budesonide (BUD), the amount of SBE-β-CD present in an aqueous composition of the three needs to be sufficient to solubilize both drugs. Example 19 details a procedure for determination of the phase solubility of budesonide in the presence of varying amounts of azelastine. The results are depicted in FIGS. 11A (for SBE-β-CD) and 11B (for SBE-β-CD and SBE-γ-CD). […] FIG. 11B is a chart of the phase solubility of BUD as a function of SBE-β-CD or SBE-γ-CD concentration in solution using various different concentrations of AZ-HCl (1.00-2.75 mg.mL). […] Thus, increasing the amount of AZ-HCl in the solution decreases the overall solubility of BUD. […] Therefore, it is advantageous to prepare solution compositions of these combinations using SBE-γ-CD due to the efficiency of interaction so as to require less of one SAExCD versus another different SAEyCD to solubilize similar amounts of actives in the presence of each other.

[3] = format: binding; remark: listed apart in the source
Excerpt: as §1

[4] = pH and temperature stability of azelastine with and without CAPTISOL (Example 16); format: physicochemical; conditions: sixteen weeks, 25, 40, 60° C., pH 4, 5, 6
Excerpt: SAE-CD is also capable of stabilizing a second active agent included in the composition. Example 16 details a procedure for evaluating the stability of azelastine in the presence of SAE-CD at varying temperatures and in solutions of different pH's. The results are depicted in FIGS. 10A to 10C. The SAE-CD stabilized the azelastine for the period of sixteen weeks regardless of the temperature or pH of the solution. The lower the temperature, the greater the stabilization.
The pH and temperature stability of an aqueous liquid composition comprising SAE-CD, azelastine, and buffer were determined as follows.
Stock citrate solutions (sodium citrate (3 mM) and citric acid solution (3 mM); 500 mL each) were prepared. The citrate solutions were combined and titrated to prepare stock buffered solutions (at least 150 mL each) having a pH of 4, 5, or 6. A stock solution of azelastine hydrochloride (5 mg/mL) in water was prepared. Assay solutions comprising CAPTISOL, azelastine and buffer were prepared by mixing CAPTISOL (1.4 g) and stock solution of azelastine (7.5 mL) in stock buffered solution (QS to final volume of 75 mL for each different pH). Assay solutions comprising azelastine and buffer were prepared by mixing stock solution of azelastine (7.5 mL) and stock buffered solution (67.5 mL, or QS to final volume of 75 mL). […]

Row | Compound | Steroid solubility (intrinsic) [1] | Equilibrium complex stability constant with SBE-β-CD [2] | Equilibrium complex stability constant with SBE-β-CD relative to SBE-γ-CD [2] | Equilibrium binding constant with CAPTISOL ([2]; pH 4.5) | Equilibrium complex stability constant with SBE-γ-CD [3] | Stability in the presence of SAE-CD [4]
1 | C[C@@H]1C[C@H]2[C@@H]3CCC4=CC(=O)C=C[C@]4(C)[C@@]3(Cl)[C@@H](O)C[C@]2(C)[C@@]1(O)C(=O)CCl [Mometasone, mometasone] | 0 µM |  |  |  |  | 
2 | CN1CCCC(n2nc(Cc3ccc(Cl)cc3)c3ccccc3c2=O)CC1 (stereo not drawn) [azelastine, 4-[(4-chlorophenyl)methyl]-2-(1-methylazepan-4-yl)-phthalazin-1-one] |  | ~10000 M⁻¹ | about 5 times | approximately 10,000 | 2200 M⁻¹ | stabilized

From patent publication US12370352B2, “Nasal and ophthalmic delivery of aqueous corticosteroid solutions” (CyDex Pharmaceuticals, Inc., priority 2007, dated 2025)
